Measured values: ChEMBL document CHEMBL1122820, “Purine and 8-substituted purine arabinofuranosyl and ribofuranosyl nucleoside derivatives as potential inducers of the differentiation of the Friend erythroleukemia” (1985)

How the values were obtained:
[1] = system: Erythroleukemia cell line; assay: Percent benzidine-positive cell differentiation in friend erythroleukemia cells; assay type: functional, Mus musculus
[2] = system: Erythroleukemia cell line; assay: Inhibition of Cellular Replication of friend erythroleukemia cells; assay type: functional; conditions: Mus musculus, read-out: ID50 (the source's name)
[3] = system: Erythroleukemia cell line; assay: Optimum concentration for differentiation of friend erythroleukemia cells; assay type: functional, Mus musculus
[4] = system: Erythroleukemia cell line; assay: Optimum concentration for the extent of differentiation of friend erythroleukemia cells was evaluated.(deoxy-coformycin added at 25 uM); assay type: functional, Mus musculus
[5] = system: Erythroleukemia cell line; assay: Compound was evaluated for the inhibition of Cellular Replication (deoxy-coformycin added at 25 uM); assay type: functional; conditions: Mus musculus, read-out: ID50 (the source's name)
[6] = system: Erythroleukemia cell line; assay: Percent benzidine-positive cells in friend erythroleukemia cells was evaluated (deoxy-coformycin added at 25 uM); assay type: functional, Mus musculus
[7] = system: Erythroleukemia cell line; assay: Percent benzidine-positive cell differentiation of friend erythroleukemia cells was evaluated.(deoxy-coformycin added at 25 uM); assay type: functional, Mus musculus
[8] = system: Erythroleukemia cell line; assay: Percent benzidine-positive cell differentiation of friend erythroleukemia cells was evaluated (deoxy-coformycin added at 25 uM); assay type: functional, Mus musculus

Row | Structure (SMILES) | IC50 [2] [µM] | IC50 [5] [µM] | Differentiation [1] [%] | Optimal concentration [3] [mM] | Optimal concentration [4] [mM] | Differentiation [6] [%] | Differentiation [7] [%] | Differentiation [8] [%]
1 | CN(C)c1nc2c(O)ncnc2n1[C@@H]1O[C@H](CO)[C@@H](O)[C@H]1O | > 8000 | – | 3 | 8 | – | – | – | –
2 | Nc1ncnc2c1nc(Br)n2[C@@H]1O[C@H](CO)[C@@H](O)[C@H]1O | > 1000 | > 1000 | 1 | 1 | 1 | 1 | – | –
3 | OC[C@H]1O[C@@H](n2cnc3c(NO)ncnc32)[C@@H](O)[C@@H]1O | 540 | 69 | 74 | 0.2 | 0.04 | 20 | – | –
4 | CN(C)c1nc2c(O)ncnc2n1[C@@H]1O[C@H](CO)[C@@H](O)[C@@H]1O | > 8000 | – | 2 | 8 | – | – | – | –
5 | Nc1ncnc2c1nc(Br)n2[C@@H]1O[C@H](CO)[C@@H](O)[C@@H]1O | 1600 | 850 | 1 | 1.6 | 0.8 | – | 2 | –
6 | O=c1[nH]c(=O)c2nc(O)n(C3O[C@H](CO)[C@@H](O)[C@H]3O)c2[nH]1 (stereo partly specified) | > 7000 | – | 3 | 7 | – | – | – | –
7 | CSc1ncnc2c1ncn2[C@@H]1O[C@H](CO)[C@@H](O)[C@H]1O | 7 | – | 51 | 0.005 | – | – | – | –
8 | C[S+](C)[O-] [DIMETHYL SULFOXIDE] | – | – | 70 | 200 | – | – | – | –
9 | O=c1[nH]c(=O)c2nc(Br)n(C3O[C@H](CO)[C@@H](O)[C@H]3O)c2[nH]1 (stereo partly specified) | > 7000 | – | 1 | 7 | – | – | – | –
10 | OC[C@H]1O[C@@H](n2c(Br)nc3c(O)ncnc32)[C@H](O)[C@@H]1O | > 5000 | – | 1 | 5 | – | – | – | –
11 | Nc1ncnc2c1ncn2[C@@H]1O[C@H](CO)[C@@H](O)[C@@H]1O [VIDARABINE] | 94 | 3 | 4 | 0.08 | 0.002 | – | – | 22
12 | Nc1nc2c(O)ncnc2n1[C@@H]1O[C@H](CO)[C@@H](O)[C@H]1O | 52 | – | 1 | 0.025 | – | – | – | –
13 | OC[C@H]1O[C@@H](n2cnc3c(O)ncnc32)[C@@H](O)[C@@H]1O | 600 | – | 82 | 0.2 | – | – | – | –

Continued, in another order:

Row | IC50 [2] [µM] | IC50 [5] [µM] | Structure (SMILES) | Differentiation [1] [%] | Optimal concentration [3] [mM] | Optimal concentration [4] [mM] | Differentiation [6] [%] | Differentiation [7] [%] | Differentiation [8] [%]
14 | > 4000 | – | OC[C@H]1OC(n2c(S)nc3c(O)ncnc32)[C@H](O)[C@@H]1O (stereo partly specified) | 1 | 4 | – | – | – | –
15 | > 3000 | – | CSc1ncnc2c1ncn2[C@@H]1O[C@H](CO)[C@@H](O)[C@@H]1O | 49 | 1.5 | – | – | – | –
16 | 6000 | – | [N-]=[N+]=N[C@H]1[C@H](O)[C@@H](CO)O[C@H]1n1cnc2c(O)ncnc21 | 40 | 2 | – | – | – | –
17 | > 2000 | – | OC[C@H]1O[C@@H](n2cnc3c(S)ncnc32)[C@H](O)[C@@H]1O [THIOINOSINE] | 51 | 1 | – | – | – | –
18 | > 5000 | – | Nc1nc2c(O)ncnc2n1[C@@H]1O[C@H](CO)[C@@H](O)[C@@H]1O | 6 | 4 | – | – | – | –
19 | 110 | – | OC[C@H]1O[C@@H](n2cnc3c(S)ncnc32)[C@@H](O)[C@@H]1O | 56 | 0.02 | – | – | – | –
20 | > 7000 | – | OC[C@H]1O[C@@H](n2cnc3c(O)nc(O)nc32)[C@H](O)[C@@H]1O [XANTHOSINE] | – | 7 | – | – | – | –
21 | 720 | – | [N-]=[N+]=Nc1nc2c(O)ncnc2n1[C@@H]1O[C@H](CO)[C@@H](O)[C@H]1O | 30 | 1 | – | – | – | –
22 | > 4000 | 50 | Nc1ncnc2c1ncn2[C@@H]1O[C@H](CO)[C@@H](O)[C@H]1O [ADENOSINE] | 3 | 4 | 0.04 | – | – | 2
23 | > 2500 | – | OC[C@H]1O[C@@H](n2c(Br)nc3c(O)ncnc32)[C@@H](O)[C@@H]1O | 1 | 4 | – | – | – | –
24 | 860 | – | [N-]=[N+]=Nc1nc2c(O)ncnc2n1[C@@H]1O[C@H](CO)[C@@H](O)[C@@H]1O | 20 | 0.5 | – | – | – | –
25 | > 7000 | – | O=c1[nH]c(=O)c2nc(OCc3ccccc3)n(C3O[C@H](CO)[C@@H](O)[C@H]3O)c2[nH]1 (stereo partly specified) | 6 | 7 | – | – | – | –
26 | > 7000 | – | O=c1[nH]cnc2c1ncn2[C@@H]1O[C@H](CO)[C@@H](O)[C@H]1O [INOSINE] | 12 | 7 | – | – | – | –
